Assay results published in article PMC11218446, “Antibacterial efficacy and membrane mechanism of action of the Serratia-derived non-ionic lipopeptide, serrawettin W2-FL10” (Microbiology Spectrum, 2024).
Values after ≈ are worked out from the molar mass of the structure shown. Values joined by “and” are separate entries in the source; they are usually repeats but may differ in a detail not shown here. Identical values can stand only once.

Experiments:
Enterococcus faecium = details: cited from earlier work
From the text: The antimicrobial activity of the serrawettin W2-FI10 analog (i.e., C10H18O2-Leu-Ser-Thr-Phe-Ile), has been extensively investigated.

B. subtilis ATCC 6051 = test: Broth microdilution assay (OD 600 nm); type: cell-based, Bacillus subtilis
Procedure: (§1) Serrawettin W2-FL10 (95% pure) was tested for antibacterial activity using a broth microdilution susceptibility assay ([6]), with melittin included as an antibiotic control. The serrawettin W2-FL10 was prepared in 70% MeCN to 1.00 mg/mL, from which aliquots were prepared using 70% MeCN to a concentration of 50 µg/mL or 500 µg/mL, while aliquots of melittin were prepared using analytical quality H2O to 128 µg/mL. Fifty microliters of the respective W2-FL10 aliquots or melittin were dispensed into a clear 96-well plate and a microdilution (in 70% MeCN for W2-FL10 or analytical quality H2O for melittin) was performed within the plate. The plate was air-dried to remove the solvent and placed in a desiccator with chloroform for 20 min for sterilization.
All the cultures (inoculated into 5 mL MHB, or 5 mL TSB for Listeria and Enterococcus strains) were incubated at 37°C to reach an optical density (OD) of 0.4 at 600 nm (∼10^7 CFU/mL). A 1:20 dilution of the test strain (final concentration of ∼10^5 CFU/mL) was prepared and 100 µL was dispensed into each well (final concentration of W2-FL10 at 1.5–125 µg/mL and melittin at 2–32 µg/mL). Sterile broth and the OD-adjusted inoculum were included as positive controls, while sterile broth (no inoculum) was included as a negative control. The 96-well plate was incubated for 18 h at 37°C. All the tests were performed in triplicate, with independent duplicates. Following incubation, the absorbance was measured using a microtiter plate reader at 600 nm. The 50% growth inhibition concentration (IC50) was determined using GraphPad Prism version 5 for Windows [GraphPad Software, San Diego, USA (www.graphpad.com)]. […]
The “top” and “bottom” are the maximum and minimum inhibition responses, respectively, for a particular set of dose-response data, while the activity slope is related to the Hill slope of a sigmoidal binding curve ([16]). […] In addition to the MIC and IC50 inhibition parameters, an inhibition concentration factor (ICF), was calculated as outlined in Rautenbach et al. ([17]). […]

S. aureus RN4220 [1] = test: Broth microdilution assay (OD 600 nm); type: cell-based, Staphylococcus aureus
Procedure: as §1
(§2) All the cultures (inoculated into 5 mL MHB, or 5 mL TSB for Listeria and Enterococcus strains) were incubated at 37°C to reach an optical density (OD) of 0.4 at 600 nm (∼10^7 CFU/mL). A 1:20 dilution of the test strain (final concentration of ∼10^5 CFU/mL) was prepared and 100 µL was dispensed into each well (final concentration of W2-FL10 at 1.5–125 µg/mL and melittin at 2–32 µg/mL). Sterile broth and the OD-adjusted inoculum were included as positive controls, while sterile broth (no inoculum) was included as a negative control. The 96-well plate was incubated for 18 h at 37°C. All the tests were performed in triplicate, with independent duplicates. Following incubation, the absorbance was measured using a microtiter plate reader at 600 nm. The 50% growth inhibition concentration (IC50) was determined using GraphPad Prism version 5 for Windows [GraphPad Software, San Diego, USA (www.graphpad.com)]. A sigmodal curve with variable slope was fitted to each set of dose-repose data according to Rautenbach et al. ([17]) using equation (1):
(§3) (1) Y=bottom+(top−bottom)/1+10^logIC50×Activity slope
(§4) The “top” and “bottom” are the maximum and minimum inhibition responses, respectively, for a particular set of dose-response data, while the activity slope is related to the Hill slope of a sigmoidal binding curve ([16]). […] The MIC value was determined for each set of dose-response data as the lowest concentration, resulting in ≥90% inhibition of the target cell growth. In addition to the MIC and IC50 inhibition parameters, an inhibition concentration factor (ICF), was calculated as outlined in Rautenbach et al. ([17]). The ICF is indicative of the concentration increase from the highest concentration where no activity is observed to the MIC of a compound.

[2] = test system: S. aureus Xen 30 (MRSA Xen 30); test: Broth microdilution assay (OD 600 nm); type: cell-based, Staphylococcus aureus
Procedure: as §1, §2, §3, §4

S. aureus ATCC 25923 [3] = test: Broth microdilution assay (OD 600 nm); type: cell-based, Staphylococcus aureus
Procedure: as §1, §2, §3, §4

S. aureus RN4220 [4] = test: Membrane permeability assay, propidium iodide; type: cell-based, Staphylococcus aureus; details: 25 µg/mL
Procedure: (§5) The membrane permeability capabilities of the W2-FL10 against the S. aureus strains were determined using PI ([56]). Briefly, black 96-well plates were prepared with W2-FL10 at 6.25, 12.5, and 25 µg/mL, while 4–16 µg/mL of melittin was used as a positive permeability control, and the plates were dried as described in the “Antibacterial activity: broth microdilution assay” section. The S. aureus strains were inoculated into MHB, grown to mid-log phase (OD600 of 0.5–0.6), and diluted to OD600 of 0.3. PI (stock concentration of 1 mg/mL in analytical quality H2O) was added to the cell suspension to a final concentration of 10 µg/mL and cells were incubated in the dark at room temperature for 20 min. Thereafter, 100 µL of OD-adjusted PI cells in the mid-log phase were dispensed into each well. Sterile broth and the OD-adjusted inoculum with PI were included as a non-fluorescent control, while sterile broth with PI was included as a sterility control, and melittin was included as membrane depolarization control. All the tests were performed in triplicate, with independent duplicates. Fluorometric readings of the plate were conducted in 4-min intervals over 60 min (readings began ~60 s after cells were added to the plate) using a Tecan Spark at 535 nm excitation wavelength and 617 nm emission wavelength.
(§6) The leakage kinetics or PI permeabilization kinetic was assessed using a rate parameter of ΔPI fluorescence per minute. This was done by fitting linear regression lines on the linear sections, namely 6–16 min for melittin and 6–18 min, as well as 34–50 min for W2-FL10. The rates of PI permeabilization were compared between the three S. aureus strains using a one-way ANOVA with Bonferroni’s post hoc test.

MRSA Xen 30 = test: Membrane permeability assay, propidium iodide; type: cell-based, Staphylococcus aureus; details: 25 µg/mL
Procedure: as §5, §6

S. aureus ATCC 25923 [5] = test: Membrane permeability assay, propidium iodide; type: cell-based, Staphylococcus aureus; details: 25 µg/mL
Procedure: as §5, §6

[6] = 50% growth inhibition, sigmoidal curve fit, n = 3
[7] = ≥90% growth inhibition, OD 600 nm, MHB, 18 h 37°C
[8] = inhibition concentration factor

## CCCCCCCC1CC(=O)N[C@H](CC(C)C)C(=O)N[C@@H](CO)C(=O)N[C@@H]([C@@H](C)O)C(=O)N[C@H](Cc2ccccc2)C(=O)N[C@@H](CC(C)C)C(=O)O1 (stereo partly shown) [W2-FL10, serrawettin W2-FL10]
Enterococcus faecium
  minimum inhibitory concentration (MIC): 15.6 µg/mL (≈ 21.3 µM)
B. subtilis ATCC 6051; [6]
  IC50 ± SD: 13.4 ± 0.8 (3) µg/mL
B. subtilis ATCC 6051; LC50 (CHO)/IC50
  Selectivity index: 2.2
B. subtilis ATCC 6051; [7]
  MIC: 31.3 μg/mL and 31.3 (42.7) μg/mL
S. aureus RN4220 [1]; [6]
  IC50 ± SD: 5.7 ± 0.6 (3) µg/mL
S. aureus RN4220 [1]; LC50 (CHO)/IC50
  Selectivity index: 5.1
S. aureus RN4220 [1]; [8]
  ICF (MIC/IC50)^2: 4.9
S. aureus RN4220 [1]; [7]
  MIC: 12.5 μg/mL and 12.5 (17.1) μg/mL
[2]; [6]
  IC50 ± SD: 5.7 ± 0.6 (3) µg/mL
[2]; LC50 (CHO)/IC50
  Selectivity index: 5.1
[2]; [8]
  ICF (MIC/IC50)^2: 4.8
[2]; [7]
  MIC: 12.5 μg/mL and 12.5 (17.1) μg/mL
S. aureus ATCC 25923 [3]; [6]
  IC50 ± SD: 5.5 ± 0.3 (3) µg/mL
S. aureus ATCC 25923 [3]; LC50 (CHO)/IC50
  Selectivity index: 5.3
S. aureus ATCC 25923 [3]; [8]
  ICF (MIC/IC50)^2: 5.2
S. aureus ATCC 25923 [3]; [7]
  MIC: 12.5 μg/mL and 12.5 (17.1) μg/mL
S. aureus RN4220 [4]
  time within which ≥90% uptake in PI fluorescence was observed: ≤ 2,760 s
MRSA Xen 30
  time within which ≥90% uptake in PI fluorescence was observed: ≤ 3,240 s
S. aureus ATCC 25923 [5]
  time within which ≥90% uptake in PI fluorescence was observed: ≤ 3,360 s
